This passage reports inhibition of growth results from patent publication US11155517B2, “4-substituted phenylamine derivatives and their use to protect crops by fighting undesired phytopathogenic micoorganisms” (PI INDUSTRIES LTD., priority 2016, dated 2021).

What all share (assay type): cell-based
In assay [1] the test system is Pyricularia oryzae. Nature of the assay: microbe, parasite or virus in culture. Particulars: 168 h, read-out: % control compared to the untreated check (radial growth).
For assay [2], the system named is Rhizoctonia solani. The experiment in a line: Rhizoctonia solani (rice sheath blight/potato black scurf) in vitro test, radial growth on Potato Dextrose Agar. The conditions noted are these: 168 h, 300 ppm, seven days, 25° C., read-out: % control compared to the untreated check (radial growth).
The test system of assay [3] is Botrytis cinerea. Nature of the assay: Botrytis cinerea (gray mold) in vitro test, radial growth on Potato Dextrose Agar. Particulars: 168 h, 300 ppm, seven days, 22° C., read-out: % (control) compared to the untreated check (radial growth).
The subject of assay [4] is Alternaria solani. The experiment in a line: Alternaria solani (early blight of tomato/potato) in vitro test, radial growth on Potato Dextrose Agar. Particulars: 168 h, 300 ppm, seven days, 25° C., read-out: % control compared to the untreated check (radial growth).
In assay [5] the test system is Colletotrichum capsici. The experiment in a line: Colletotrichum capsici (anthracnose) in vitro test, radial growth on Potato Dextrose Agar. Particulars: Colletotrichum truncatum, 168 h; 300 ppm; seven days, 25° C.; read-out: % control compared to the untreated check (radial growth).
Assay [6] concerns Septoria lycopersici. The experiment in a line: Septoria lycopersici (leaf spot of tomato) in vitro test, radial growth on Potato Dextrose Agar. The conditions noted are these: 168 h, seven days, 25° C., read-out: % control compared to the untreated check (radial growth).
For assay [7], the system named is Fusarium culmorum. Nature of the assay: Fusarium culmorum (foot rot of cereals) in vitro test, radial growth on Potato Dextrose Agar. Particulars: Fusarium culmorum, 168 h, read-out: % control compared to the untreated check (radial growth).

In the case of `CCN(C)C=Nc1cc(C)c(Cc2cccc(C#N)c2)cc1C` [Compound 47, N′-(4-(3-cyanobenzyl)-2,5-dimethylphenyl)-N-ethyl-N-methylformimidamide], the inhibition of growth at 300 ppm in assay [1] was greater than 75%; in assay [2] it was greater than 80%; in assay [3], greater than 80%; in assay [4], greater than 75%; in assay [5] it was greater than 80%; in assay [6], greater than 70%. Further, the inhibition of growth at 300 ppm in assay [7] is 75%.
Regarding `CCN(C)C=Nc1cc(C)c(Cc2cccc(F)c2)cc1F` [Compound 209, N-ethyl-N′-(2-fluoro-4-(3-fluorobenzyl)-5-methylphenyl)-N-methylformimidamide], the inhibition of growth at 300 ppm in assay [1] is greater than 75%; in assay [2] it was greater than 80%; in assay [3], greater than 80%; in assay [4] it was greater than 75%; in assay [5] it was greater than 80%; in assay [6] it was greater than 70%. In assay [7], the inhibition of growth at 300 ppm amounted to 75%.
Regarding `CCN(C)C=Nc1cc(C(F)(F)F)c(Cc2ccccc2Cl)cc1C1CC1` [Compound 262, N′-(4-(2-chlorobenzyl)-2-cyclopropyl-5-(trifluoromethyl)phenyl)-N-ethyl-N-methylformimidamide], the inhibition of growth at 300 ppm in assay [1] is greater than 75%; in assay [2], greater than 80%; in assay [3], greater than 80%; in assay [4], greater than 75%; in assay [5], greater than 80%; in assay [6] it was greater than 70%. The inhibition of growth at 300 ppm in assay [7] stood at 75%.
`Cc1cc(N=CN2CCCCC2)c(C)cc1Cc1ccccc1F` [Compound 58, N-(4-(2-fluorobenzyl)-2,5-dimethylphenyl)-1-(piperidin-1-yl)methanimine]: the inhibition of growth at 300 ppm is greater than 75% in assay [1]; greater than 80% in assay [2]; greater than 80% in assay [3]; greater than 75% in assay [4]; greater than 80% in assay [5]; greater than 70% in assay [6]. For the same compound, the inhibition of growth at 300 ppm in assay [7] came out at 75%.
With `CCN(C)C=Nc1cc(F)c(Cc2cccc(Cl)c2)cc1C` [Compound 173, N′-(4-(3-chlorobenzyl)-5-fluoro-2-methylphenyl)-N-ethyl-N-methylformimidamide], the inhibition of growth at 300 ppm in assay [1] is greater than 75%; in assay [2] it was greater than 80%; in assay [3] it was greater than 80%; in assay [4] it was greater than 75%; in assay [5], greater than 80%; in assay [6], greater than 70%. In addition, the inhibition of growth at 300 ppm in assay [7] amounted to 75%.
Take `CCN(C)C=Nc1cc(C(F)(F)F)c(Cc2cccc(C)c2)cc1C1CC1` [Compound 263, N′-(2-cyclopropyl-4-(3-methylbenzyl)-5-(trifluoromethyl)phenyl)-N-ethyl-N-methylformimidamide]: the inhibition of growth at 300 ppm in assay [1] was greater than 75%; in assay [2], greater than 80%; in assay [3], greater than 80%; in assay [4], greater than 75%; in assay [5], greater than 80%; in assay [6], greater than 70%. Besides, in assay [7], the inhibition of growth at 300 ppm is 75%.
In the case of `CCN(C)C=Nc1cc(C)c(Cc2ccc(SC(F)(F)F)cc2)cc1C` [Compound 92, N′-(2,5-dimethyl-4-(4-((trifluoromethyl)thio)benzyl)phenyl)-N-ethyl-N-methylformimidamide], the inhibition of growth at 300 ppm is greater than 75% in assay [1]; greater than 80% in assay [2]; greater than 80% in assay [3]; greater than 75% in assay [4]; greater than 80% in assay [5]; greater than 70% in assay [6]. The inhibition of growth at 300 ppm in assay [7] was 75%.
In the case of `CCN(C)C=Nc1cc(C)c(Cc2cccc(C(F)(F)F)c2)cc1C` [Compound 46, N′-(2,5-dimethyl-4-(3-(trifluoromethyl)benzyl)phenyl)-N-ethyl-N-methylformimidamide], the inhibition of growth at 300 ppm is greater than 75% in assay [1]; greater than 80% in assay [2]; greater than 80% in assay [3]; greater than 75% in assay [4]; greater than 80% in assay [5]; greater than 70% in assay [6]. The inhibition of growth at 300 ppm in assay [7] was found to be 75%.
`CCN(C)C=Nc1cc(C)c(Cc2ccc(C(F)(F)F)cc2F)cc1C` [Compound 201, N-ethyl-N′-(4-(2-fluoro-4-(trifluoromethyl)benzyl)-2,5-dimethylphenyl)-N-methylformimidamide]: the inhibition of growth at 300 ppm in assay [1] is greater than 75%; in assay [2], greater than 80%; in assay [3], greater than 80%; in assay [4] it was greater than 75%; in assay [5] it was greater than 80%; in assay [6], greater than 70%. In addition, the inhibition of growth at 300 ppm in assay [7] is 75%.
Take `CCN(C)C=Nc1cc(C)c(Cc2ccc(C)c(F)c2)cc1Cl` [Compound 139, N′-(2-chloro-4-(3-fluoro-4-methylbenzyl)-5-methylphenyl)-N-ethyl-N-methylformimidamide]: the inhibition of growth at 300 ppm was greater than 75% in assay [1]; greater than 80% in assay [2]; greater than 80% in assay [3]; greater than 75% in assay [4]; greater than 80% in assay [5]; greater than 70% in assay [6]. The inhibition of growth at 300 ppm in assay [7] stood at 75%.
`CCN(C)C=Nc1cc(C)c(Cc2cccc(Cl)c2)cc1F` [Compound 208, N′-(4-(3-chlorobenzyl)-2-fluoro-5-methylphenyl)-N-ethyl-N-methylformimidamide]: the inhibition of growth at 300 ppm in assay [1] was greater than 75%; in assay [2], greater than 80%; in assay [3] it was greater than 80%; in assay [4] it was greater than 75%; in assay [5], greater than 80%; in assay [6], greater than 70%. Moreover, the inhibition of growth at 300 ppm in assay [7] was determined as 75%.
On to `CCN(C)C=Nc1cc(C)c(Cc2ccccc2OC(F)(F)F)cc1F` [Compound 207, N-ethyl-N′-(2-fluoro-5-methyl-4-(2-(trifluoromethoxy)benzyl)phenyl)-N-methylformimidamide], for which the inhibition of growth at 300 ppm was greater than 75% in assay [1]; greater than 80% in assay [2]; greater than 80% in assay [3]; greater than 75% in assay [4]; greater than 80% in assay [5]; greater than 70% in assay [6]. In addition, the inhibition of growth at 300 ppm in assay [7] was found to be 75%.
For the compound `CCN(C)C=Nc1cc(C)c(Cc2ccc(Cl)c(C(F)(F)F)c2)cc1C` [Compound 142, N′-(4-(4-chloro-3-(trifluoromethyl)benzyl)-2,5-dimethylphenyl)-N-ethyl-N-methylformimidamide], the inhibition of growth at 300 ppm in assay [1] was greater than 75%; in assay [2] it was greater than 80%; in assay [3], greater than 80%; in assay [4], greater than 75%; in assay [5] it was greater than 80%; in assay [6] it was greater than 70%. Further, in assay [7], the inhibition of growth at 300 ppm worked out at 75%.
